≈ marks a conversion by molar mass, not a printed value. Where two headings read alike, the source gives them in different places.
Assays:
[1] = molecular target: T1, hCB1R (Homo sapiens, UniProt P21554); assay: cell-based; details: Table 1; mean ± SD; read-out: EC50 hCB1R (cAMP assay)
[2] = Microsomal clearance; type: in vitro ADME; details: human, human microsomes; Table 1
[3] = molecular target: human wild type CB2R (Homo sapiens, UniProt P34972); assay: cAMP assay in CHO cells; type: cell-based; design: expressed in transfected cells; host or cells: CHO cells
[4] = molecular target: human CB2R (Homo sapiens, UniProt P34972); assay: Competition binding assay with [3H]-CP55940, HEK cell membranes; details: for hCB2R selectivity: Ki hCB1R over Ki hCB2R
Description: (§3) Competition and saturation binding assays were performed using the radiolabeled CB1R/CB2R agonist [^3H]-CP55940 (PerkinElmer).
(§4) Binding reactions were terminated by vacuum filtration onto 0.5% polyethylenimine presoaked GF/B filter plates (Packard) using a Filtermate cell harvester followed by 6 brief washes with 0.3 mL/well of ice-cold wash buffer. Wash buffer comprising 50 mmol L^–1 Tris- HCl, 5 mmol L^–1 MgCl2, 2.5 mmol L^–1 EDTA, and 0.5% fatty acid-free BSA, pH 7.4. Plates were dried at 50 °C for 1 h and liquid scintillation counting was used to determine levels of bound radiolabel. IC50 values and Hill slopes were determined with a 4-parameter logistic model using ActivityBase (ID Business Solution, Guilford, UK) and pKi values were determined using the Cheng–Prusoff equation as shown below: [drawing 1] where S indicates the concentration of the substrate and Km depicts the affinity constant of the substrate.

[5] = Microsomal clearance; type: in vitro ADME; details: rat, rat microsomes, Table 1
[6] = Parallel artificial membrane permeability (PAMPA) assay; type: in vitro ADME; details: PAMPA, Table 1; read-out: PAMPA Peff
Description: The general permeability of the compound was assessed using the parallel artificial membrane permeability (PAMPA) assay and the permeability-glycoprotein (P-gp) assay was used to specifically test for brain penetration. PAMPA data were generated as previously reported by our group.[44] The P-gp assay, which evaluates the brain penetration of test compounds, was performed as described elsewhere.[45] Briefly, transfected porcine kidney epithelial (LLC-PK1) cells expressing human or mouse P-gp were cultured on 96-well semipermeable filter membrane plates (Millipore, Darmstadt, Germany). Cells formed a polarized monolayer with tight junctions that acted as a barrier between apical and basolateral compartments. P-gp was expressed in the apical-facing membrane of the monolayer (tightness confirmed using Lucifer yellow). To determine the unidirectional permeability (Papp) of RNB-61, samples were added separately to the apical (for A > B Papp) and basolateral (for B > A Papp) sides of the cell monolayer (i.e., donor compartments), and RNB-61 movement into the respective receiver compartments was measured by LC-MS/MS over a 3 h incubation at 37 °C. The effect of P-gp was measured by expressing the efflux ratio of the unidirectional A > B and B > A Papp values. The mean permeability (A > B and B > A Papp) was determined in the absence of P-gp via the addition of the selective P-gp inhibitor, tariquidar.

[7] = Octanol/water distribution coefficient (logD), CAMDIS assay; type: physicochemical; details: octanol/water; read-out: logD
Description: (§1) For the determination of the octanol/water distribution coefficient (logD), the carrier-mediated distribution system (CAMDIS)-assay was used as described elsewhere.[38] Kinetic and thermodynamic solubilities were assessed using the lyophilization solubility assay (LYSA) and thermodynamic solubility assay (THESA), respectively. For the LYSA, the solubility of RNB- 61 in phosphate buffer at pH 6.5 from an evaporated 10 mM DMSO compound stock solution was measured. Two aliquots of the test compounds were dried and dissolved in phosphate buffer at pH 6.5. The solutions were then filtered and diluted (3 different dilution levels for each compound) before high throughput mass spectrometry (MS) analysis was performed in an Agilent RapidFire system. Each test compound was quantified using a 6-point calibration curve prepared with the same DMSO starting solution. For THESA, RNB-61 (8.6 mg per mL solvent/vehicle) was stirred in HPLC vials (9 × 12 × 32 mm, Waters) at 350 rpm for 15 h. The presence of solid particles was determined by microscopic analysis of 10 μL samples. If the active pharmacological ingredient (API) was completely dissolved, more solid API was added before stirring for another 15 h. This step was repeated for up to 96 h or until residual solid particles could be detected. Samples (0.5 mL) were transferred to Eppendorf Ultrafree filter tubes (Filter: PVDF 0.22 μm) and centrifuged at 14,500 rpm for 10 min. The filtrates were diluted in ethanol and analyzed by ultra-performance liquid chromatography (UPLC). Measurements were repeated in 0.05 M aqueous phosphate buffer and in fasted (FaSSIF) and fed (FeSSIF) simulated gastrointestinal fluids.

[8] = Solubility (Table 1); type: physicochemical; details: thermodynamic from solid
Description: as §1

[9] = test system: renal I/R-induced acute kidney injury; assay: Ischemia/reperfusion (I/R) model of acute kidney injury; type: in vivo, C57BL/6 mice
Description: (§2) In the ischemia/reperfusion (I/R) model of acute kidney injury (AKI),[47],[48] the compounds were administered orally by gavage to C57BL/6 mice 30 min before ischemia obtained by clamping both renal arteries and veins for 25 min, followed by 24 h of reperfusion. Mice were anesthetized using xylazine (10 mg kg^–1)/ketamine (100 mg kg^–1) injected intraperitoneally. Sham treated mice were treated identically except for the temporary closure of the renal vessels. After 24 h, under reanesthesia, plasma was taken for biomarker analysis. Thereafter, mice still in deep anesthesia were sacrificed by cervical dislocation. Creatinine, BUN (blood urea nitrogen), NGAL (neutrophil gelatinase-associated lipocalin), osteopontin, and KIM1 (kidney injury molecule-1) levels were determined using the following commercially available standard assays: creatinine: Roche Diagnostics 03263991, BUN: Roche Diagnostics 04460715, NGAL: BioPorto, Kit046 + Kit042, osteopontin: R&D Systems, MOST00, KIM-1: Abnova, KA1064. To assess fibrotic effects, we used the unilateral ureteral obstruction (UOO) model in Sprague–Dawley rats.[49] For the UOO model, rats were sacrificed after 5, 8, and 11 days and the percentage of PicroSirius Red positive areas (indicator of collagen III–I deposition) were measured in 4 μm histological cross sections of the kidney after 2% paraformaldehyde perfusion fixation and paraffin embedding. The extend of kidney fibrosis was quantified based on PicroSirius Red staining of 10 renal sections about 1 mm apart from each kidney. The collagen–III-I-positive pixel counts were determined in the cortical aspect of each kidney section from 10 optical fields using a 40× objective. As the total area analyzed was identical for all kidneys under investigation, the absolute number of pixels was used as the relevant readout. Vehicle treated animals received saline gavage only. The details of PicroSirius Red staining were previously described.[22]

[10] = molecular target: T1, hCB1R; assay: Competition binding assay with [3H]-CP55940, HEK cell membranes
Description: as §3, §4

[11] = molecular target: T2, CB2R in wild-type rat spleen membranes (Rattus norvegicus, UniProt Q9QZN9); type: binding; details: WT rat spleen membranes
T2 construct: from tissue; host or cells: rat spleen membranes

[12] = test system: UUO-induced kidney fibrosis; assay: Unilateral ureteral obstruction (UUO) model of kidney fibrosis; type: in vivo, Sprague–Dawley rats; details: 32 mg kg^–1, day 5, time-course experiment
Description: as §2

[13] = Table 1, mean ± SD, read-out: EC50 hCB2R (cAMP assay)

T1 sequence (P21554 whole entry): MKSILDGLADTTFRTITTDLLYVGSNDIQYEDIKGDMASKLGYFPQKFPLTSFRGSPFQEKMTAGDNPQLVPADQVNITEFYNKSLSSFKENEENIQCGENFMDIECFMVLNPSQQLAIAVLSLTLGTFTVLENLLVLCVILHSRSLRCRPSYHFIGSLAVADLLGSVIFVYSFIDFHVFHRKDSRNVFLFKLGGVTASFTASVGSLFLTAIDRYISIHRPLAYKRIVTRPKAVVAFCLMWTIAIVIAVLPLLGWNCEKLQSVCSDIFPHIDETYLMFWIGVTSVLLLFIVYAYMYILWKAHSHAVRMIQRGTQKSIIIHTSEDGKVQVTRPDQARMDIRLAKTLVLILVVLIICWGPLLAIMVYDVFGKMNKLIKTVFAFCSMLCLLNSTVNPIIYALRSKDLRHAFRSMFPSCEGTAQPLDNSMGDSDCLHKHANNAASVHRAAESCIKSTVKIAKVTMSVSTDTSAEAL
Sequence of human CB2R (P34972 whole entry): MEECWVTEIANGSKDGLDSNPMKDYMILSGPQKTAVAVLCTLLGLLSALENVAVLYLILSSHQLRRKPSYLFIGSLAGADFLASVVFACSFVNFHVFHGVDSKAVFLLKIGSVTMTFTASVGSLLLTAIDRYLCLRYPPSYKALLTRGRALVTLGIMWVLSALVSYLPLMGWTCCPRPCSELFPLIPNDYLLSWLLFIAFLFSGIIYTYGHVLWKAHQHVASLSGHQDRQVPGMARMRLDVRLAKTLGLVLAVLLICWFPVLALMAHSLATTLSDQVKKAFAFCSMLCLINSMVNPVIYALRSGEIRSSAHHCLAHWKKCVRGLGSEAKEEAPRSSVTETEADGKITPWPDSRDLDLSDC
Sequence of human wild type CB2R (P34972 whole entry): as above
T2 sequence (Q9QZN9 whole entry): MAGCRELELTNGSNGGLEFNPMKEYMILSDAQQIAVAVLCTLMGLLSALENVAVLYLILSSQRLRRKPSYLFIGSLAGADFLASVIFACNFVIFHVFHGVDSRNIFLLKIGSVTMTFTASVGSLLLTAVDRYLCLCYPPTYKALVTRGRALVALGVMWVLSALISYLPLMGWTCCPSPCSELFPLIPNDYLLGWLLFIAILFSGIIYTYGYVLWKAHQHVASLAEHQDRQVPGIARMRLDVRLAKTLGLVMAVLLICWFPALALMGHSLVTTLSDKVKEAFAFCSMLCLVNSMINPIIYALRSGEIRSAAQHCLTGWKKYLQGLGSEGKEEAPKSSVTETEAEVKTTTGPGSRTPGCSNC

Q: For `CC(C)(Oc1ccc(C(F)(F)F)cn1)C(=O)Cc1cc(C(C)(C)C)no1` [RNB-90], which EC50 [1] is on record?
A: The EC50 was 19.6 ± 1.18 nM.

Q: What about the microsomal CLint [2] of the same compound?
A: Its microsomal CLint is 15 µL/min/mg.

Q: And the EC50 [3, 13]?
A: The EC50 was 0.26 ± 0.05 nM.

Q: What about the hCB2R selectivity [4] of the same compound?
A: The hCB2R selectivity was 307.

Q: What about the microsomal CLint [5] of the same compound?
A: The microsomal CLint was 81 µL/min/mg.

Q: And the Papp [6]?
A: The Papp was 2 ×10⁻⁶ cm/s.

Q: What about the logD [7] of the same compound?
A: Its logD is 4.07.

Q: What about the solubility [8] of the same compound?
A: Its solubility is less than 1 µg/mL.

Q: For `CC1(C)CC(O)CC(C)(C)N1[O]` [tempol, reference compound], which “reduction of BUN compared to vehicle” value ([9]; 50 mg kg^–1) is on record?
A: Its value is 26%.

Q: And the “reduction of plasma KIM-1 compared to vehicle” value ([9]; 50 mg kg^–1)?
A: Its value is 57%.

Q: What about the “reduction of plasma NGAL compared to vehicle” value ([9]; 50 mg kg^–1) of the same compound?
A: Its value is 43%.

Q: What about the “reduction of plasma creatinine compared to vehicle” value ([9]; 50 mg kg^–1) of the same compound?
A: The value was 35%.

Q: What about the “reduction of plasma osteopontin compared to vehicle” value ([9]; 50 mg kg^–1) of the same compound?
A: The value was 49%.

Q: Which results are given for `COCCOCCc1cc(NC(=O)C(C)(C)S(=O)(=O)C2CCOCC2)on1` [RNB-70]?
A: Ki [10]: > 10000 nM; EC50 [1]: > 10000 nM; microsomal CLint [2]: < 10 µL/min/mg; EC50 [3, 13]: 13 ± 2.58 nM; hCB2R selectivity [4]: >559; Papp [6]: 5.9 ×10⁻⁶ cm/s; logD [7]: 0.8; solubility [8]: > 510 µg/mL

Q: With `Cc1c(C(=O)c2cccc3ccccc23)c2cccc3c2n1[C@H](CN1CCOCC1)CO3` [WIN55,212–2] as the compound, how does the “reduction of [3H]-RNB-61 radioactivity” value ([11]; competitor 10 μM) read?
A: The value was “significant reduction”.

Q: Which “reduction of BUN compared to vehicle” value ([9]; 20 mg kg^–1) does the source give for `Oc1ccc(C2CNCCc3c2cc(O)c(O)c3Cl)cc1` (centres unmarked) [fenoldopam, reference compound] here?
A: The value was 39%.

Q: What about the “reduction of plasma creatinine compared to vehicle” value ([9]; 20 mg kg^–1) of the same compound?
A: The value was 55%.

Q: Which Ki [10] does the source give for `N#Cc1cc(NC(=O)CCc2nc(-c3ccc(F)cc3Cl)no2)cnc1CC(F)(F)F` [RNB-73] here?
A: Its Ki is greater than 10000 nM.

Q: What about the EC50 [1] of the same compound?
A: The EC50 was greater than 10000 nM.

Q: And the microsomal CLint [2]?
A: The microsomal CLint was less than 10 µL/min/mg.

Q: What about the EC50 [3, 13] of the same compound?
A: The EC50 was 7.13 ± 2.19 nM.

Q: What about the hCB2R selectivity [4] of the same compound?
A: The hCB2R selectivity was greater than 153.

Q: What about the microsomal CLint [5] of the same compound?
A: The microsomal CLint was less than 10 µL/min/mg.

Q: What about the Papp [6] of the same compound?
A: The Papp was 7.4 ×10⁻⁶ cm/s.

Q: And the logD [7]?
A: Its logD is 3.86.

Q: And the solubility [8]?
A: The solubility was less than 1 µg/mL.

Q: With `CCOC(=O)[C@H](CCc1ccccc1)N[C@@H](C)C(=O)N1CCC[C@H]1C(=O)O` [enalapril, reference compound] as the compound, how does the “collagen–III-I positive area vs vehicle” value [12] read?
A: The value was “No significant difference”.

Q: For `CN(C(=O)c1cc(C(F)(F)F)ccc1OCC(C)(C)O)c1cc(C(C)(C)C)nn1CC1CCC1` [regioisomer of RNB-61], which “activity (data not shown)” value ([4]; assay not specified) is on record?
A: Its value is “inactive”.

Q: With `CC1(C)C(C(=O)c2cn(CCN3CCOCC3)c3ccccc23)C1(C)C` [RNB-92] as the compound, how does the microsomal CLint [2] read?
A: Its microsomal CLint is 420 µL/min/mg.

Q: And the EC50 [3]?
A: Its EC50 is 0.17 ± 0.01 nM.

Q: What about the microsomal CLint [5] of the same compound?
A: The microsomal CLint was 730 µL/min/mg.

Q: What about the logD [7] of the same compound?
A: Its logD is 3.43.

Q: What about the solubility [8] of the same compound?
A: Its solubility is 2 µg/mL (≈ 5.64 µM).

Q: Which “reduction of [3H]-RNB-61 radioactivity” value ([11]; competitor 1 μM) does the source give for `Cc1c(C(=O)NN2CCCCC2)nn(-c2ccc(Cl)cc2Cl)c1-c1ccc(Cl)cc1` [SR1] here?
A: The value was “did not result in a significant difference”.
